According to article PMC7357169, “Blinded, Multicenter Evaluation of Drug-induced Changes in Contractility Using Human-induced Pluripotent Stem Cell-derived Cardiomyocytes” (Toxicological Sciences, 2020):
Read-outs that look alike come from different tables or passages of the source.

What was measured:
[1] = tested on: cardiac contractility; settings: cited from earlier work; for EC50: read-out: Expected effect on contractility in isolated cardiomyocytes/heart muscles, EC50; for NI: at 30 µM, ref (Witchel et al. 2002), (Mannhardt et al. 2017), (Rao 2007)
[2] = tested on: hiPSC-CMs; assay: Training set contractility in hiPSC-CMs on TTM, CellOPTIQ and EHT platforms; assay type: cell-based, human; settings: for inotropy (CA) response: trend or significant response, Supplementary Figure 3
Experimental: The training set of 8 drugs was used to test and refine protocols. […] For each parameter, the percentage change in drug-treated samples relative to their respective vehicle control was calculated using the formula ([drug/drug baseline]/[vehicle/vehicle baseline])*100–100. […] These studies allowed unification of SOPs, although physical and technical constraints between the platforms meant that some unavoidable differences remained (Supplementary Table 2).
Supplementary Figure 3: Training sets to unify drug testing procedures. […] The percentage change in drug treated samples is relative to their respective vehicle control. Unpaired T-test. * p<0.05; ** p<0.01; *** p<0.001; **** p<0.0001.

[3] = tested on: heart; set-up: method as in Refs column of Supplementary Table 1; settings: Refs of Supplementary Table 1; cited from earlier work
[4] = cited from earlier work; for FTPC: free therapeutic plasma concentration, Refs of Supplementary Table 1; for FPTC (free plasma therapeutic concentration): ref Supplementary Table 1
[5] = tested on: hiPSC-CM EHTs; assay: EHT contractility with beat rate slowed by 300 nM ivabradine and electrical pacing 0.5-2.0 Hz; assay type: cell-based, human; settings: EHTs with 300 nM ivabradine, paced; only at 0.5 and 0.7 Hz, sometimes at 1 Hz, never at 1.5 or 2 Hz; high concentration bolus
Experimental: We extended these studies to the 3D EHT platform, this time slowing spontaneous beating to < 0.5 Hz with 300 nM ivabradine, a pharmacological blocker of the “funny” If current ([Bois et al., 1996]). […] Whereas force-frequency relationships was negative above 1.5 Hz, it was positive between 0.5 and 1.5 Hz, evidenced by a 147% increase in force generation concurrent with significant shortening of CT and RT (Supplementary Figure 6). We therefore re-evaluated 6 of the PIs in the presence of 300 nM ivabradine with electrical pacing at 0.5, 0.7, 1.0, 1.5, and 2.0 Hz. These also included epinephrine, levosimendan, and pimobendan, which had been incorrectly predicted by EHT:R-PAT and/or EHT:ERC platform-cell combinations. […] Thus, in both 2D and 3D configurations, lower beating frequencies led to increased predictivity for PIs.
Figure 5. Slowed beat rate increases the predictivity of positive inotropes (PIs) in 3D engineered heart tissues (EHTs). Contraction analysis was carried out using EHTs with 6 of the PIs from the drug test set: epinephrine (Epi), forskolin (For), levosimendan (Lev), pimobendan (Pim), dobutamine (Dob), and milrinone (Mil) which had been predicted with variable accuracy (Figure 4A, web tool). […] Scatter plots show percentage changes relative to baseline at respective frequency. Averaged peaks for force are shown for baseline (BL, black peaks) versus after treatment in EHTs paced at 0.5 Hz (blue peaks) or 2.0 Hz (red peaks). Dunnett’s stats versus baseline at respective frequency: *p < .05; **p < .01; ***p < .001; ****p < .0001.
Supplementary Figure 6. Positive force frequency relationship in EHTs paced between 0.5 and 1.5 Hz. Spontaneous beat rate of EHTs was reduced by 3 hour pre-treatment with 300 nM ivabradine, an If current inhibitor. […] CA increased from 0.5 to 1.5 Hz but plateaued and declined at higher frequencies. These changes were reflected in the CT and RT data. Dunnett's stats vs vehicle control: *, P<0.05; **, P<0.01; ***, P<0.001; ****, P<0.0001.

[6] = isolated cardiomyocytes/heart muscles, Refs of Supplementary Table 1

SMILES	Expected effect on contractility in isolated cardiomyocytes/heart muscles [1, 6]	RT response ([2]; 2D configuration)	inotropy (CA) response [2]	Expected cardiac effects in vivo [3]	EC50 [1, 6]	CT and RT response ([2]; 3D EHTs)	FTPC [4]	CA response [5]	FPTC (free plasma therapeutic concentration) [4]	IC50 ([1]; negative inotropy, isolated cardiomyocytes/heart muscles, Refs of Supplementary Table 1, read-out: Expected effect on contractility in isolated cardiomyocytes/heart muscles, IC50)	NI ([1]; in hEHT)	NI ([1]; in human atria)
C[C@H]1O[C@@H](O[C@H]2[C@@H](O)C[C@H](O[C@H]3[C@@H](O)C[C@H](O[C@H]4CC[C@@]5(C)[C@H](CC[C@@H]6[C@@H]5C[C@@H](O)[C@]5(C)[C@@H](C7=CC(=O)OC7)CC[C@]65O)C4)O[C@@H]3C)O[C@@H]2C)C[C@H](O)[C@@H]1O [digoxin]	PI+ PL (< 1 µM, slowly developing, t1/2 conc.-dependent) NI + diast. shortening (>1 µM)	tended to increase RT	positive inotropy	PI, arrhythmias								
CC(C)NCC(O)c1ccc(O)c(O)c1 (centres unmarked) [isoprenaline]			positive inotropy	PI, PC	10 nM	decreased of both CT and RT	0.0095 µM					
CNC[C@H](O)c1ccc(O)c(O)c1 [Epinephrine]				PI, PC	100 nM		0.0002 to 0.050 µM	increased contraction amplitude	0.0002 to 0.05 µM			
COC(=O)C1=C(C)NC(C)=C(C(=O)OC)C1c1ccccc1[N+](=O)[O-] [nifedipine]			negative inotropy	Small NI (direct) overridden by adrenergic activation, PC (indirect)						100 nM		
COc1ccc(Cl)cc1C(=O)NCCc1ccc(S(=O)(=O)NC(=O)NC2CCCCC2)cc1 [Glibenclamide]	None; PI in ischemia or presence of KATP opener; NI in adrenalectomized dogs, NE in isolated dog heart trabeculae			None or PI in ischemia			0.02 to 0.06 µM		0.02 to 0.06 µM			
CN(C)CCCC1(c2ccc(F)cc2)OCc2cc(C#N)ccc21 (centres unmarked) [Citalopram]	NI at 30 µM			None (at therapeutic doses), higher risk of TdP			0.05 µM		0.05 µM		-57%	-38%
COc1ccc(-c2nc3ccc(C4=NNC(=O)CC4C)cc3[nH]2)cc1 (centres unmarked) [Pimobendan]				PI, small PC	34000 nM		0.005 to 0.01 µM	increased contraction amplitude	0.005 to 0.01 µM			
